Laboratory results from patent US11252960B2 (KIMBERLY-CLARK WORLDWIDE, INC., priority 2017, dated 2022).

Key:
[1] = Determination of Dissociation Constant (pKa) by Potentiometric Titration Method; assay type: physicochemical; conditions: ultrapure water, 22° C.
Description: Potentiometric Titration Method: A calibrated pH meter was used for the assay. 50 mL solution of each test/reference item solution (0.1 mg/mL) was added to four beakers (two for acid titration and two for base titration). 0.1 N Sodium hydroxide (NaOH) solution was prepared as titrant solution. The pH electrode was placed into the beaker containing test/reference item solution. The initial pH of the solution will be recorded. 100 μL of 0.1 N NaOH was added successively with stirring and the pH at each addition was recorded. Base titrations were carried out individually in duplicates until a sudden shift in the pH was observed.

[2] = assay type: physicochemical; conditions: pH 4.5
Description: This water was used as a test media for determining the solubility of test/reference items. Stock solutions of concentration 1 mg/mL for test items/reference items was prepared in methanol. The stock solution will be used for preparation of calibration curve standards. Calibration curve of test/reference items was prepared by serially dilution consisting of 4-5-6 concentrations in 96 well format. […] The method was as follows: Calibration curve of test items were prepared by serial dilution consisting of 8 concentrations. […] Water, 50:50). […] 40 mg of test items were weighed into tubes. […] The initial pH of the solubility samples were recorded. […] Then, the solutions were observed visually for any precipitation. […] An aliquot of the supernatant were diluted with equal volume of methanol. […] The samples were then transferred to UV plate and scanned at λmax of that particular test/reference item. Compound #12 was transferred to auto-sampler vials and submitted for LC-MS/MS analysis.

[3] = test system: Candida albicans (ATCC 10231); test: Anti-fungal Minimum Inhibitory Concentration (MIC) Method, microbroth dilution; assay type: cell-based; conditions: RPMI-1640, 25° C., 48 hours, pH 4.5-adjusted stock
Description: (§1) Anti-Bacterial and Anti-Fungal Minimum Inhibitory Concentration (MIC) Method Method: Microbroth Dilution Method (96-well format). Test item: […] Solvent: Sterile MilliQ water and 0.1 M Citrate Buffer pH 4.5 Media used: • Bacterial: Cation-Adjusted Mueller-Hinton Broth (CAMHB) • Fungi: RPMI-1640 Fungi: • Incubation Temperature: • 25° C. (Candida albicans) • 35° C. (Aspergillus brasiliensis) • Incubation Time: 48 hours • Inoculum Size: 5×10^4 cfu/mL • Strains: • Candida albicans (ATCC 10231) • Aspergillus brasiliensis (ATCC 16404) • End point: Inhibition of growth, Spectrophotometer Reading @ 600 nm • Reference standards: […] All solubilized and pH 4.5-adjusted test compounds were filter-sterilized before subjecting to MIC study. […] All the strains were inoculated on their respective agar medium and incubated under conditions/durations detailed above. • Preparation of inoculum: • The bacterial colony suspension in 0.85% saline was adjusted to 1 McFarland's standard using […] which was further diluted to 1:100 in CAMHB. The fungal suspension for inoculation was prepared in 0.85% saline from 6 days old culture (for mold, A. brasiliensis) and from 2 days old culture (for yeast, C. albicans) from Sabouraud Dextrose agar medium. […] Micro titer plates were prepared as per the CLSI recommendations. One hundred and seventy five microliters of Cation-adjusted Muller Hinton Broth (CAMHB) was added to the first column of a 96 well flat bottom plate, which is the media control. Second column is for the stocks of the test compounds and reference standards from which dilutions are made. Then 175 μL of CAMHB was added to the 5th, 8th and 11th columns, 75 μL of CAMHB to the 4th, 7th and 10th columns and 50 μL of CAMHB to the 3rd, 6th and 9th columns and the last column was the organism control.

[4] = test system: Aspergillus brasiliensis (ATCC 16404); test: as above; assay type: cell-based; conditions: RPMI-1640, 35° C., 48 hours, pH 4.5-adjusted stock
Description: as §1

[5] = test system: Burkholderia cepacia (ATCC 25416); test: Anti-bacterial Minimum Inhibitory Concentration (MIC) Method, microbroth dilution; assay type: cell-based; conditions: CAMHB, 37° C., 24 hours, pH 4.5-adjusted stock
Description: as §1, with “RPMI-1640 […]” for “RPMI-1640”

[6] = test system: Pseudomonas aeruginosa (ATCC 9027); test: as above; assay type: cell-based; conditions: CAMHB, 37° C., 24 hours, pH 4.5-adjusted stock
Description: as §1, with “RPMI-1640 […]” for “RPMI-1640”

[7] = test system: Staphylococcus aureus (ATCC 6538); test: as above; assay type: cell-based; conditions: CAMHB, 37° C., 24 hours, pH 4.5-adjusted stock
Description: as §1, with “RPMI-1640 […]” for “RPMI-1640”

[8] = test system: Escherichia coli (ATCC 8739); test: as above; assay type: cell-based; conditions: CAMHB, 37° C., 24 hours, pH 4.5-adjusted stock
Description: as §1, with “RPMI-1640 […]” for “RPMI-1640”

Compound | pKa ([1]; pH 4.5, Table 1, 0.1 mg/ml) | Solubility (wt %) [2] [wt %] | MIC (%) C. albicans ([3]; Table 1) [%] | MIC (%) A. brasiliensis ([4]; Table 1) [%] | MIC (%) B. cepacia ([5]; Table 1) [%] | MIC (%) P. aeruginosa ([6]; Table 1) [%] | MIC (%) S. Aureus ([7]; Table 1) [%] | MIC (%) E. coli ([8]; Table 1) [%] | other results
O=C(O)c1ccc(OCCO)cc1 [Compound 1, 4-(2-hydroxyethoxy) benzoic acid] | 4.95 | 0.2779 | >0.165 | >0.165 | 0.082 | 0.082 | 0.041 | 0.165 | 
O=C(O)c1ccc(OCC(O)CO)cc1 (stereo not drawn) [Compound 2, 4-(2,3-dihydroxypropoxy) benzoic acid] | 4.6 | 0.343 | >0.181 | >0.181 | 0.09 | 0.09 | 0.045 | 0.181 | 
O=C(O)c1ccc(O[C@@H]2O[C@H](CO)[C@H](O)[C@H](O)[C@H]2O)cc1 [Compound 3, 4-{[(3R,4S,5R,6R)-3,4,5-trihydroxy-6-(hydroxymethyl)oxan-2-yl]oxy}benzoic acid] | 4.5 |  | >0.87 | >0.87 | >0.87 | >0.87 | >0.87 | >0.87 | MIC (%) C. albicans ([3]; Table 1, listed as #3): > 0.87%; MIC (%) A. brasiliensis ([4]; Table 1, listed as #3): > 0.87%; MIC (%) B. cepacia ([5]; Table 1, listed as #3): > 0.87%; MIC (%) P. aeruginosa ([6]; Table 1, listed as #3): > 0.87%; MIC (%) S. Aureus ([7]; Table 1, listed as #3): > 0.87%; MIC (%) E. coli ([8]; Table 1, listed as #3): > 0.87%
O=C(O)c1ccc(OC2OC(CO)C(O)C2O)cc1 (stereo not drawn) [Compound 4, 4-{[3,4-dihydroxy-5-(hydroxymethyl)oxolan-2-yl]oxy}benzoic acid] | 4.6 | >1.00 | >1 | >1 | 0.25 | 0.5 | 0.125 | 1 | 
O=C(O)c1ccc(OC2CC(O)C(CO)O2)cc1 (stereo not drawn) [Compound 5, 4-{[4-hydroxy-5-(hydroxymethyl)oxolan-2-yl]oxy}benzoic acid] | 5.6 | 0.11 | >0.069 | >0.069 | 0.034 | 0.034 | 0.017 | >0.069 | 
O=C(O)c1ccc(OCCCCO)cc1 [Compound 6, 4-(4-hydroxybutoxy) benzoic acid] | 4.6 | 0.0667 | >0.04 | >0.04 | 0.02 | 0.04 | 0.01 | 0.04 | 
CC(O)COc1ccc(C(=O)O)cc1 (stereo not drawn) [Compound 7, 4-(2-hydroxypropoxy) benzoic acid] | 5.6 | 0.123 | >0.079 | >0.079 | 0.02 | 0.039 | 0.02 | 0.079 | 
O=C(OCCO)c1ccccc1 [Compound 8, Benzoic acid 2-hydroxyethyl ester] |  | >1.0 |  |  |  |  |  |  | pKa ([1]; pH 4.5, Table 3, 0.1 mg/ml): > 7; MIC (%) C. albicans ([3]; Table 4): 0.475%; MIC (%) A. brasiliensis ([4]; Table 4): 0.118%; MIC (%) B. cepacia ([5]; Table 4): 0.118%; MIC (%) P. aeruginosa ([6]; Table 4): 0.237%; MIC (%) S. Aureus ([7]; Table 4): 0.475%; MIC (%) E. coli ([8]; Table 4): 0.475%
benzoic acid [reference compound] |  |  | 0.137 | 0.137 | 0.034 | 0.068 | 0.068 | 0.07 | MIC (%) C. albicans ([3]; Table 4): 0.137%; MIC (%) A. brasiliensis ([4]; Table 4): 0.137%; MIC (%) B. cepacia ([5]; Table 4): 0.034%; MIC (%) P. aeruginosa ([6]; Table 4): 0.068%; MIC (%) S. Aureus ([7]; Table 4): 0.068%; MIC (%) E. coli ([8]; Table 4): 0.07%
